Experimental data as given in US20240327412A1, “FACTOR XIIA INHIBITORS” (KALVISTA PHARMACEUTICALS LIMITED, priority 2021, published 2024).

Target: T1, Human Factor XIIa (Homo sapiens, UniProt P00748)
T1 construct: Proteolytic cleavage of FXII to heavy and light chains of FXIIa dramatically increases catalytic activity; purchased Enzyme Research Laboratories
T1 sequence (P00748 373-615 limits assumed): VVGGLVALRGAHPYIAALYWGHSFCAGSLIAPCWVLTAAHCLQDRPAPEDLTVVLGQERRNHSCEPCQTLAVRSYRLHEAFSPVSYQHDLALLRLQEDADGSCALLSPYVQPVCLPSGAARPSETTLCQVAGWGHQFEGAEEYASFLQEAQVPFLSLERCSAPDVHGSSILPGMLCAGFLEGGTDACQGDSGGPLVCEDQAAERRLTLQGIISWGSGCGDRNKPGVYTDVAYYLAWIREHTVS
T1 sequence (P00748 20-372 partner limits assumed): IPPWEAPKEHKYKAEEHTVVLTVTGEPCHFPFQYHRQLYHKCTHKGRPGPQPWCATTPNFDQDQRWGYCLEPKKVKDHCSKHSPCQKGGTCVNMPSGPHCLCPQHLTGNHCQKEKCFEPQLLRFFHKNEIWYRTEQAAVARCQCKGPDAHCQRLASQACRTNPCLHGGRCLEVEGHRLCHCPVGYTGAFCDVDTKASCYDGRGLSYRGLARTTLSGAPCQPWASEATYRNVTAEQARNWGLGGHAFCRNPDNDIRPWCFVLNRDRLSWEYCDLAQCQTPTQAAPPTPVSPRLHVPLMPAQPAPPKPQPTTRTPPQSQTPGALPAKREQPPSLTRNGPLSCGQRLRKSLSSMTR
Assay: Determination of FXIIa inhibition (fluorogenic substrate H-DPro-Phe-Arg-AFC, IC50 assay)
Format: biochemical
Settings: substrate at Km concentration, 25° C.; category scale; read-out: Human FXII IC50 (nm)
Procedure, shortened: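 At substrate Km and 25° C., the rate of AFC release from H-DPro-Phe-Arg-AFC by human Factor XIIa was followed for 5 min across compound concentrations. Inhibition was derived as percent of uninhibited rate, giving IC50.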

SMILES	IC50 [nM]
Cn1ccc(OCC23CC(CNc4cccc5c(N)nccc45)(CN2C(=O)Cc2ccccc2)C3)cc1=O [Example 13021, 4-((4-(((1-aminoisoquinolin-5-yl)amino)methyl)-2-(2-phenylacetyl)-2-azabicyclo[2.1.1]hexan-1-yl)methoxy)-1-methylpyridin-2(1H)-one]	300 to 1000
Cc1cn2cc(OCC34COC(CNc5cccc6c(N)nccc56)(C3)C4)ccc2n1 [Example 6633, N5-((4-(((2-methylimidazo[1,2-a]pyridin-6-yl)oxy)methyl)-2-oxabicyclo[2.1.1]hexan-1-yl)methyl)isoquinoline-1,5-diamine]	100 to 300
Cn1ccc(OCC23CN(C(=O)NCc4ccccc4F)C(CNc4cccc5c(N)nccc45)(C2)C3)cc1=O [Example 12058, 1-(((1-aminoisoquinolin-5-yl)amino)methyl)-N-(2-fluorobenzyl)-4-(((1-methyl-2-oxo-1,2-dihydropyridin-4-yl)oxy)methyl)-2-azabicyclo[2.1.1]hexane-2-carboxamide]	10 to 100
CN1CCc2cc(OCC34CCOC(CNc5cccc6c(N)nccc56)(C3)C4)ccc2C1=O [Example 10939, 6-((1-(((1-aminoisoquinolin-5-yl)amino)methyl)-2-oxabicyclo[3.1.1]heptan-5-yl)methoxy)-2-methyl-3,4-dihydroisoquinolin-1(2H)-one]	300 to 1000
Cn1ccc(OCC23CN(C(=O)OCc4ccc(F)c(F)c4)C(CNc4cccc5c(N)nccc45)(C2)C3)cc1=O [Example 12020, 3,4-difluorobenzyl 1-(((1-aminoisoquinolin-5-yl)amino)methyl)-4-(((1-methyl-2-oxo-1,2-dihydropyridin-4-yl)oxy)methyl)-2-azabicyclo[2.1.1]hexane-2-carboxylate]	100 to 300
Cc1cccc(OCC23CCOC(CNc4cccc5c(N)nccc45)(C2)C3)n1 [Example 10957, N5-((5-(((6-methylpyridin-2-yl)oxy)methyl)-2-oxabicyclo[3.1.1]heptan-1-yl)methyl)isoquinoline-1,5-diamine]	3000 to 10000
Cn1ccc(OCC23CN(C(=O)Nc4ccccc4F)C(CNc4cccc5c(N)nccc45)(C2)C3)cc1=O [Example 12068, 1-(((1-aminoisoquinolin-5-yl)amino)methyl)-N-(2-fluorophenyl)-4-(((1-methyl-2-oxo-1,2-dihydropyridin-4-yl)oxy)methyl)-2-azabicyclo[2.1.1]hexane-2-carboxamide]	1 to 10
Nc1nccc2c(NCC34CC(COc5ccc6nncn6c5)(CCO3)C4)cccc12 [Example 10929, N5-((5-(([1,2,4]triazolo[4,3-a]pyridin-6-yloxy)methyl)-2-oxabicyclo[3.1.1]heptan-1-yl)methyl)isoquinoline-1,5-diamine]	300 to 1000
Nc1nccc2c(NCC34CC(COc5ccc6c(c5)CNC6=O)(CCO3)C4)cccc12 [Example 10931, 5-((1-(((1-aminoisoquinolin-5-yl)amino)methyl)-2-oxabicyclo[3.1.1]heptan-5-yl)methoxy)isoindolin-1-one]	10 to 100
Cn1ccc(OCC23CC(CNc4cccc5c(N)nccc45)(CN2S(=O)(=O)CCc2ccccc2)C3)cc1=O [Example 13014, 4-((4-(((1-aminoisoquinolin-5-yl)amino)methyl)-2-(phenethylsulfonyl)-2-azabicyclo[2.1.1]hexan-1-yl)methoxy)-1-methylpyridin-2(1H)-one]	100 to 300

More lines, now with the values ahead:

IC50 [nM]	SMILES
10 to 100	Cn1ccc(OCC23CN(C(=O)CCc4cccc5cnccc45)C(CNc4cccc5c(N)nccc45)(C2)C3)cc1=O [Example 12047, 4-((1-(((1-aminoisoquinolin-5-yl)amino)methyl)-2-(3-(isoquinolin-5-yl)propanoyl)-2-azabicyclo[2.1.1]hexan-4-yl)methoxy)-1-methylpyridin-2(1H)-one]
100 to 300	Cn1ccc(OCC23CC(CNc4cccc5c(N)nccc45)(CN2C(=O)OCc2ccccn2)C3)cc1=O [Example 13013, pyridin-2-ylmethyl 4-(((1-aminoisoquinolin-5-yl)amino)methyl)-1-(((1-methyl-2-oxo-1,2-dihydropyridin-4-yl)oxy)methyl)-2-azabicyclo[2.1.1]hexane-2-carboxylate]
10 to 100	Nc1nccc2c(NCC34CC(COc5ccc6ncc(C7CC7)n6c5)(CO3)C4)cccc12 [Example 6639, N5-((4-(((3-cyclopropylimidazo[1,2-a]pyridin-6-yl)oxy)methyl)-2-oxabicyclo[2.1.1]hexan-1-yl)methyl)isoquinoline-1,5-diamine]
3000 to 10000	Nc1nccc2c(NCC34CC(COc5ccnnc5)(CCO3)C4)cccc12 [Example 10963, N5-((5-((pyridazin-4-yloxy)methyl)-2-oxabicyclo[3.1.1]heptan-1-yl)methyl)isoquinoline-1,5-diamine]
10 to 100	Cn1ccc(OCC23CN(C(=O)CCc4cccc(C(F)F)c4)C(CNc4cccc5c(N)nccc45)(C2)C3)cc1=O [Example 12048, 4-((1-(((1-aminoisoquinolin-5-yl)amino)methyl)-2-(3-(3-(difluoromethyl)phenyl)propanoyl)-2-azabicyclo[2.1.1]hexan-4-yl)methoxy)-1-methylpyridin-2(1H)-one]
10 to 100	Cn1cc(COC(=O)N2CC3(CNc4cccc5c(N)nccc45)CC2(COc2ccn(C)c(=O)c2)C3)cn1 [Example 13022, (1-methyl-1H-pyrazol-4-yl)methyl 4-(((1-aminoisoquinolin-5-yl)amino)methyl)-1-(((1-methyl-2-oxo-1,2-dihydropyridin-4-yl)oxy)methyl)-2-azabicyclo[2.1.1]hexane-2-carboxylate]
10 to 100	COc1ccccc1CNC(=O)N1CC2(COc3ccn(C)c(=O)c3)CC1(CNc1cccc3c(N)nccc13)C2 [Example 12067, 1-(((1-aminoisoquinolin-5-yl)amino)methyl)-N-(2-methoxybenzyl)-4-(((1-methyl-2-oxo-1,2-dihydropyridin-4-yl)oxy)methyl)-2-azabicyclo[2.1.1]hexane-2-carboxamide]
100 to 300	CN1CCc2cc(OCC34COC(CNc5cccc6c(N)nccc56)(C3)C4)ccc2C1=O [Example 6640, 6-((1-(((1-aminoisoquinolin-5-yl)amino)methyl)-2-oxabicyclo[2.1.1]hexan-4-yl)methoxy)-2-methyl-3,4-dihydroisoquinolin-1(2H)-one]
100 to 300	Cn1ccc(OCC23CC(CNc4cccc5c(N)nccc45)(CN2C(=O)CCc2cccnc2)C3)cc1=O [Example 13010, 4-((4-(((1-aminoisoquinolin-5-yl)amino)methyl)-2-(3-(pyridin-3-yl)propanoyl)-2-azabicyclo[2.1.1]hexan-1-yl)methoxy)-1-methylpyridin-2(1H)-one]
100 to 300	Cn1cc(COC(=O)N2CC3(COc4ccn(C)c(=O)c4)CC2(CNc2cccc4c(N)nccc24)C3)cn1 [Example 12026, (1-methyl-1H-pyrazol-4-yl)methyl 1-(((1-aminoisoquinolin-5-yl)amino)methyl)-4-(((1-methyl-2-oxo-1,2-dihydropyridin-4-yl)oxy)methyl)-2-azabicyclo[2.1.1]hexane-2-carboxylate]
100 to 300	CC(=O)N1CC2(CNc3cccc4c(N)nccc34)CC1(COc1ccn(C)c(=O)c1)C2 [Example 13003, 4-((2-acetyl-4-(((1-aminoisoquinolin-5-yl)amino)methyl)-2-azabicyclo[2.1.1]hexan-1-yl)methoxy)-1-methylpyridin-2(1H)-one]
10 to 100	Cn1ccc(OCC23CN(C(=O)CCc4cccc(OC(F)F)c4)C(CNc4cccc5c(N)nccc45)(C2)C3)cc1=O [Example 12056, 4-((1-(((1-aminoisoquinolin-5-yl)amino)methyl)-2-(3-(3-(difluoromethoxy)phenyl)propanoyl)-2-azabicyclo[2.1.1]hexan-4-yl)methoxy)-1-methylpyridin-2(1H)-one]
1000 to 3000	Cc1cn(C)c(=O)nc1OCC12CCOC(CNc3cccc4c(N)nccc34)(C1)C2 [Example 10962, 4-((1-(((1-aminoisoquinolin-5-yl)amino)methyl)-2-oxabicyclo[3.1.1]heptan-5-yl)methoxy)-1,5-dimethylpyrimidin-2(1H)-one]

Target: T2, Plasma Kallikrein (Homo sapiens, UniProt P03952)
T2 construct: FXIIa converts plasma prekallikrein (PK) to plasma kallikrein (PKa)
T2 sequence (P03952 391-638 limits assumed): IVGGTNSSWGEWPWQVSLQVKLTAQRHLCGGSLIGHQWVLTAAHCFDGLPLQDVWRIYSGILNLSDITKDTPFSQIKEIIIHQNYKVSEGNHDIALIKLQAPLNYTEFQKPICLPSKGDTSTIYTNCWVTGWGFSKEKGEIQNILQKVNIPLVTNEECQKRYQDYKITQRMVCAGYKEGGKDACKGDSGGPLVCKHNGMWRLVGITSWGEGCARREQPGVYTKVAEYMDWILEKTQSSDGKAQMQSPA
T2 sequence (P03952 20-390 partner limits assumed): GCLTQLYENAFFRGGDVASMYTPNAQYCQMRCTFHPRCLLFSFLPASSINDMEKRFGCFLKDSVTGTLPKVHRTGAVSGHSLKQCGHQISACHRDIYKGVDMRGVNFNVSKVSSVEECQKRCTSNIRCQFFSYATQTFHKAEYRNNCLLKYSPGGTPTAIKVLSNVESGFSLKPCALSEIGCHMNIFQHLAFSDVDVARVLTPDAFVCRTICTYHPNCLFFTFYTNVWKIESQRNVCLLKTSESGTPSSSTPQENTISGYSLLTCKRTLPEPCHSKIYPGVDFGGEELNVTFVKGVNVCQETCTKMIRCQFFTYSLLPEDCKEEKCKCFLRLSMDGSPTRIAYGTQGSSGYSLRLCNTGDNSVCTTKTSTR
Assay: Related protease inhibition: Plasma Kallikrein (fluorogenic substrate at Km)
Format: biochemical
Settings: class symbols per Table 18, read-out: IC50 (human PKal)
Protocol: In vitro inhibition of related proteases was determined using an IC50 assay based on standard literature methods (see e.g. Shori et al., Biochem. Pharmacol., 1992, 43, 1209; Bouckaert et al., European Journal of Medicinal Chemistry 110 (2016) 181). Human serine protease enzyme Plasma Kallikrein, KLK1, FXa, Plasmin, Thrombin and Trypsin were assayed for enzymatic activity using an appropriate fluorogenic substrate at Km concentration, FXIa at fixed substrate concentration of 100 μM and various concentrations of the test compound. Protease activity was measured by monitoring the accumulation of liberated fluorescence from the substrate over 5 min at 25° C. The linear rate of fluorescence increase per minute was expressed as percentage (%) activity. IC50 values were calculated as the concentration of inhibitor giving 50% inhibition of the uninhibited enzyme activity (100%).

IC50 [nM]	SMILES
> 100000	Clc1c[nH]c2ncc(NCC34CC(COc5ccn6ccnc6c5)(C3)C4)cc12 [Example 1129, 3-chloro-N-((3-((imidazo[1,2-a]pyridin-7-yloxy)methyl)bicyclo[1.1.1]pentan-1-yl)methyl)-1H-pyrrolo[2,3-b]pyridin-5-amine]
